# According to ChEMBL document CHEMBL4616582, “Green recipes to quinoline: A review” (Eur J Med Chem, 2019):
# Tested on: HepG2
# Assay: Cytotoxicity against human HepG2 cells assessed as reduction in cell viability by MTT assay
# Type: functional, cell-based
# Settings: not given
row,Structure (SMILES),IC50 [nM]
1,CC(=O)c1ccccc1 [ACETOPHENONE],984
2,O=c1c2c(Cl)ccc(Cl)c2n(-c2ccccc2)c2ss/c(=N\c3ccccc3)c12,984
3,CC(=O)c1ccc(Cl)cc1,984
4,O=c1c2ccc(F)cc2n(-c2ccccc2)c2ss/c(=N\c3ccccc3)c12,984
5,CC(=O)c1ccccc1Cl,984
6,CC(=O)c1cc(F)c(Cl)cc1Cl,984
7,Cc1ccc(Br)c2c(=O)c3/c(=N/c4ccccc4)ssc3n(-c3ccccc3)c12,984
8,CC(=O)c1cc(Cl)ccc1Cl,984
9,O=c1c2ccc(Cl)cc2n(-c2ccccc2)c2ss/c(=N\c3ccccc3)c12,984
10,CC(=O)c1ccc(Cl)c(Cl)c1,984
11,O=c1c2ccc(Br)cc2n(-c2ccccc2)c2ss/c(=N\c3ccccc3)c12,984
12,CC(C)=CCC[C@]1(C)C=Cc2c(O)c3c(c(CC=C(C)C)c2O1)O[C@]12C(=C[C@@H]4C[C@H]1C(C)(C)O[C@@]2(C/C=C(/C)C(=O)O)C4=O)C3=O [GAMBOGIC ACID],1550
13,CC(=O)c1ccc(F)cc1,984
14,CC(=O)c1ccc(Br)cc1,984
15,O=c1c2c(Cl)cccc2n(-c2ccccc2)c2ss/c(=N\c3ccccc3)c12,984
16,O=c1c2c(Cl)cc(Cl)c(F)c2n(-c2ccccc2)c2ss/c(=N\c3ccccc3)c12,984
17,CC(=O)c1cc(C)ccc1Br,984
18,S=C=Nc1ccccc1 [PHENYLISOTHIOCYANATE],984
19,O=c1c2cc(Cl)c(Cl)cc2n(-c2ccccc2)c2ss/c(=N\c3ccccc3)c12,984

# Tested on: Bacillus subtilis
# Assay: Antibacterial activity against Bacillus subtilis MTCC 121 after 24 hrs by agar well diffusion method
# Type: functional
# Settings: MTCC 121, 24 h
row,Structure (SMILES),MIC [µg/mL]
1,COc1ccc(N2C(=O)C3(C4=C(Nc5ccc(Br)cc53)c3ccccc3C4=O)C3=C2CCCC3=O)cc1 (configuration not stated),8
2,CC1(C)CC(=O)C2=C(C1)N(c1ccc(Cl)cc1)C(=O)C21C2=C(Nc3ccc([N+](=O)[O-])cc31)c1ccccc1C2=O (configuration not stated),8
3,O=C1CCCC2=C1C1(C(=O)N2c2ccc(Br)cc2)C2=C(Nc3ccc(Br)cc31)c1ccccc1C2=O (configuration not stated),8
4,CC1(C)CC(=O)C2=C(C1)N(c1ccc(Br)cc1)C(=O)C21C2=C(Nc3ccccc31)c1ccccc1C2=O (configuration not stated),8
5,CCCCN1C(=O)C2(C3=C(Nc4ccc(Br)cc42)c2ccccc2C3=O)C2=C1CC(C)(C)CC2=O (configuration not stated),8
6,O=C1CCCC2=C1C1(C(=O)N2c2ccccc2)C2=C(Nc3ccccc31)c1ccccc1C2=O (configuration not stated),8
7,O=C1CCCC2=C1C1(C(=O)N2C2CCCCC2)C2=C(Nc3ccc(Br)cc31)c1ccccc1C2=O (configuration not stated),8
8,O=C1CCCC2=C1C1(C(=O)N2c2ccc(Cl)cc2)C2=C(Nc3ccc([N+](=O)[O-])cc31)c1ccccc1C2=O (configuration not stated),8
9,O=C1CCCC2=C1C1(C(=O)N2c2ccc(Br)cc2)C2=C(Nc3ccc([N+](=O)[O-])cc31)c1ccccc1C2=O (configuration not stated),8
10,CC1(C)CC(=O)C2=C(C1)N(c1ccco1)C(=O)C21C2=C(Nc3ccc([N+](=O)[O-])cc31)c1ccccc1C2=O (configuration not stated),8
11,COc1ccc(N2C(=O)C3(C4=C(Nc5ccccc53)c3ccccc3C4=O)C3=C2CC(C)(C)CC3=O)cc1 (configuration not stated),8
12,O=C1CCCC2=C1C1(C(=O)N2c2ccccc2)C2=C(Nc3ccc([N+](=O)[O-])cc31)c1ccccc1C2=O (configuration not stated),8
13,CC1(C)CC(=O)C2=C(C1)N(c1ccco1)C(=O)C21C2=C(Nc3ccc(Br)cc31)c1ccccc1C2=O (configuration not stated),8
14,CC1(C)CC(=O)C2=C(C1)N(c1ccccc1)C(=O)C21C2=C(Nc3ccccc31)c1ccccc1C2=O (configuration not stated),8
15,O=C(O)c1cn(C2CC2)c2cc(N3CCNCC3)c(F)cc2c1=O [CIPROFLOXACIN],6.25
16,CC1(C)CC(=O)C2=C(C1)N(c1ccccc1)C(=O)C21C2=C(Nc3ccc(Br)cc31)c1ccccc1C2=O (configuration not stated),8
17,O=C1CCCC2=C1C1(C(=O)N2c2ccccc2)C2=C(Nc3ccc(Br)cc31)c1ccccc1C2=O (configuration not stated),8
18,Cc1ccc(N2C(=O)C3(C4=C(Nc5ccccc53)c3ccccc3C4=O)C3=C2CC(C)(C)CC3=O)cc1 (configuration not stated),8
19,O=C1CCCC2=C1C1(C(=O)N2c2ccc(Cl)cc2)C2=C(Nc3ccccc31)c1ccccc1C2=O (configuration not stated),8
20,Cc1ccc(N2C(=O)C3(C4=C(Nc5ccc([N+](=O)[O-])cc53)c3ccccc3C4=O)C3=C2CCCC3=O)cc1 (configuration not stated),8
21,CC1(C)CC(=O)C2=C(C1)N(c1ccccc1)C(=O)C21C2=C(Nc3ccc([N+](=O)[O-])cc31)c1ccccc1C2=O (configuration not stated),8
22,CC1(C)CC(=O)C2=C(C1)N(c1ccc(Cl)cc1)C(=O)C21C2=C(Nc3ccccc31)c1ccccc1C2=O (configuration not stated),8
23,Cc1ccc(N2C(=O)C3(C4=C(Nc5ccc(Br)cc53)c3ccccc3C4=O)C3=C2CCCC3=O)cc1 (configuration not stated),8

# Tested on: Plasmodium falciparum
# Assay: Antimalarial activity against chloroquine and quinine sensitive Plasmodium falciparum
# Type: functional, organism-based
# Settings: not given
row,Structure (SMILES),IC50 [µg/mL]
1,COc1ccc(NN2C(N)=C(C#N)C(c3c(C)nn(-c4ccccc4)c3Oc3cccc(C(F)(F)F)c3)C3=C2CC(C)(C)CC3=O)cc1 (configuration not stated),0.042 to 0.09
2,Cc1nn(-c2ccccc2)c(Oc2cccc(F)c2)c1C1C(C#N)=C(N)N(Nc2ccccc2)C2=C1C(=O)CC(C)(C)C2 (configuration not stated),0.042 to 0.09
3,COc1ccc(NN2C(N)=C(C#N)C(c3c(C)nn(-c4ccccc4)c3Oc3ccccc3F)C3=C2CC(C)(C)CC3=O)cc1 (configuration not stated),0.042 to 0.09
4,Cc1nn(-c2ccccc2)c(Oc2ccc(F)cc2)c1C1C(C#N)=C(N)N(Nc2ccc(F)cc2)C2=C1C(=O)CC(C)(C)C2 (configuration not stated),0.042 to 0.09
5,Cc1nn(-c2ccccc2)c(Oc2ccccc2F)c1C1C(C#N)=C(N)N(Nc2ccc(Br)cc2)C2=C1C(=O)CC(C)(C)C2 (configuration not stated),0.042 to 0.09
6,Cc1nn(-c2ccccc2)c(Oc2cccc(F)c2)c1C1C(C#N)=C(N)N(Nc2ccc(Br)cc2)C2=C1C(=O)CC(C)(C)C2 (configuration not stated),0.042 to 0.09
7,C=C[C@H]1CN2CC[C@H]1C[C@H]2[C@H](O)c1ccnc2ccc(OC)cc12 [QUININE],0.268
8,Cc1nn(-c2ccccc2)c(Oc2ccccc2F)c1C1C(C#N)=C(N)N(Nc2ccc(Cl)cc2)C2=C1C(=O)CC(C)(C)C2 (configuration not stated),0.042 to 0.09
9,Cc1nn(-c2ccccc2)c(Oc2cccc(C(F)(F)F)c2)c1C1C(C#N)=C(N)N(Nc2ccc(Br)cc2)C2=C1C(=O)CC(C)(C)C2 (configuration not stated),0.042 to 0.09
10,COc1ccc(NN2C(N)=C(C#N)C(c3c(C)nn(-c4ccccc4)c3Oc3cccc(F)c3)C3=C2CC(C)(C)CC3=O)cc1 (configuration not stated),0.042 to 0.09
11,Cc1nn(-c2ccccc2)c(Oc2ccc(F)cc2)c1C1C(C#N)=C(N)N(Nc2ccccc2)C2=C1C(=O)CC(C)(C)C2 (configuration not stated),0.042 to 0.09
12,Cc1nn(-c2ccccc2)c(Oc2cccc(C(F)(F)F)c2)c1C1C(C#N)=C(N)N(Nc2ccc(F)cc2)C2=C1C(=O)CC(C)(C)C2 (configuration not stated),0.042 to 0.09
13,Cc1nn(-c2ccccc2)c(Oc2ccccc2F)c1C1C(C#N)=C(N)N(Nc2ccc(F)cc2)C2=C1C(=O)CC(C)(C)C2 (configuration not stated),0.042 to 0.09
14,Cc1nn(-c2ccccc2)c(Oc2ccc(F)cc2)c1C1C(C#N)=C(N)N(Nc2ccc(Br)cc2)C2=C1C(=O)CC(C)(C)C2 (configuration not stated),0.042 to 0.09
15,Cc1nn(-c2ccccc2)c(Oc2cccc(F)c2)c1C1C(C#N)=C(N)N(Nc2ccc(F)cc2)C2=C1C(=O)CC(C)(C)C2 (configuration not stated),0.042 to 0.09
16,Cc1nn(-c2ccccc2)c(Oc2ccccc2F)c1C1C(C#N)=C(N)N(Nc2ccccc2)C2=C1C(=O)CC(C)(C)C2 (configuration not stated),0.042 to 0.09

# Tested on: B16-F10
# Assay: Cytotoxicity against mouse B16F10 cells assessed as reduction in cell viability
# Type: functional, cell-based
# Settings: not given
row,Structure (SMILES),IC50 [µM]
1,Cc1ccc(C=O)cc1,70.7
2,O=Cc1ccc(Br)cc1,70.7
3,O=Cc1ccc(Cl)cc1,70.7
4,O=Cc1ccccn1 [2-PYRIDINECARBOXALDEHYDE],70.7
5,O=Cc1ccc(O)cc1 [4-HYDROXYBENZALDEHYDE],70.7
6,COc1ccc(C=O)cc1 [ANISALDEHYDE],70.7
7,O=c1oc2ccccc2c2nc3c(ccc4cc[nH]c43)c(-c3cccnc3Cl)c12,70.7
8,O=c1oc2ccccc2c2nc3c(ccc4cc[nH]c43)c(-c3ccc(Br)cc3)c12,70.7
9,O=Cc1c(Cl)cccc1Cl,70.7
10,O=Cc1ccccc1 [BENZALDEHYDE],70.7
11,O=Cc1cccc(Cl)c1Cl,70.7
12,O=Cc1cccc(Br)c1,70.7
13,O=Cc1ccc([N+](=O)[O-])cc1,70.7
14,O=c1oc2ccccc2c2nc3c(ccc4cc[nH]c43)c(-c3ccc(F)cc3)c12,70.7
15,O=Cc1ccccc1Br,70.7
16,O=c1oc2ccccc2c2nc3c(ccc4cc[nH]c43)c(-c3ccccc3)c12,70.7
17,Cc1ccc(-c2c3ccc4cc[nH]c4c3nc3c2c(=O)oc2ccccc23)cc1,70.7
18,O=c1oc2ccccc2c2nc3c(ccc4cc[nH]c43)c(-c3c(Cl)cccc3Cl)c12,70.7
19,O=Cc1cccc2ccccc12,70.7
20,O=c1oc2ccccc2c2nc3c(ccc4cc[nH]c43)c(-c3ccc(Cl)cc3Cl)c12,70.7

row,Structure (SMILES),IC50 [µM]
1,O=c1oc2ccccc2c2nc3c(ccc4cc[nH]c43)c(-c3ccccn3)c12,70.7
2,O=c1oc2ccccc2c2nc3c(ccc4cc[nH]c43)c(-c3ccc([N+](=O)[O-])cc3)c12,70.7
3,COc1ccc(-c2c3ccc4cc[nH]c4c3nc3c2c(=O)oc2ccccc23)cc1,70.7
4,O=Cc1cccnc1Cl [2-CHLORONICOTINALDEHYDE],70.7
5,O=c1cc(O)c2cc(Br)ccc2o1,70.7
6,O=c1oc2ccccc2c2nc3c(ccc4cc[nH]c43)c(-c3ccc(O)cc3)c12,70.7
7,O=c1oc2ccccc2c2nc3c(ccc4cc[nH]c43)c(-c3cccc(Cl)c3Cl)c12,70.7
8,O=c1oc2ccccc2c2nc3c(ccc4cc[nH]c43)c(-c3cccc4ccccc34)c12,70.7
9,O=c1cc(O)c2cc(F)ccc2o1,70.7
10,O=c1oc2ccccc2c2nc3c(ccc4cc[nH]c43)c(-c3cccc(Br)c3)c12,70.7
11,O=Cc1ccc(F)cc1,70.7
12,O=c1oc2ccccc2c2nc3c(ccc4cc[nH]c43)c(-c3ccc(Cl)cc3)c12,70.7
13,Nc1cccc2cc[nH]c12,70.7
14,O=c1oc2ccccc2c2nc3c(ccc4cc[nH]c43)c(-c3ccc(C(F)(F)F)cc3)c12,70.7
15,O=Cc1ccc(Cl)cc1Cl,70.7
16,O=c1oc2ccccc2c2nc3c(ccc4cc[nH]c43)c(-c3ccccc3Br)c12,70.7
17,O=c1cc(O)c2cc(Cl)ccc2o1,70.7
18,O=c1cc(O)c2ccccc2o1 [4-HYDROXYCOUMARINS],70.7
19,O=Cc1ccc(C(F)(F)F)cc1,70.7
